Test results reported in article PMC10983009 (Journal of Medicinal Chemistry, 2024).
Where “and” joins values, the source holds several entries; their conditions need not be identical. Equal values may be shown once. Read-outs that look alike come from different tables or passages of the source. Marks after values point to notes of the source that are not given here.

Assays:
[1] = compound remaining, literature value; cited from earlier work
[2] = compound remaining, literature value; cited from earlier work; remark: listed apart in the source
DDR1(h) = DDR1(h) (Homo sapiens, UniProt Q08345); details: at 1 μM; cited from earlier work
Caco-2 cells = details: literature value, cited from earlier work
TNIK(h) = TNIK(h) (Homo sapiens, UniProt Q9UKE5); details: at 1 μM; cited from earlier work
[3] = In vivo PK exposure in mouse model; details: male, NOD-SCID, po, 25 mg/kg
[4] = Caco-2 permeability assay; type: in vitro ADME; details: human, Caco-2, pH 7.4
ALK4/ACVR1β = target: T1, ALK4/ACVR1β (Homo sapiens, UniProt P36896); experiment: Radiometric in vitro kinase assay
T1 sequence (P36896 24-505): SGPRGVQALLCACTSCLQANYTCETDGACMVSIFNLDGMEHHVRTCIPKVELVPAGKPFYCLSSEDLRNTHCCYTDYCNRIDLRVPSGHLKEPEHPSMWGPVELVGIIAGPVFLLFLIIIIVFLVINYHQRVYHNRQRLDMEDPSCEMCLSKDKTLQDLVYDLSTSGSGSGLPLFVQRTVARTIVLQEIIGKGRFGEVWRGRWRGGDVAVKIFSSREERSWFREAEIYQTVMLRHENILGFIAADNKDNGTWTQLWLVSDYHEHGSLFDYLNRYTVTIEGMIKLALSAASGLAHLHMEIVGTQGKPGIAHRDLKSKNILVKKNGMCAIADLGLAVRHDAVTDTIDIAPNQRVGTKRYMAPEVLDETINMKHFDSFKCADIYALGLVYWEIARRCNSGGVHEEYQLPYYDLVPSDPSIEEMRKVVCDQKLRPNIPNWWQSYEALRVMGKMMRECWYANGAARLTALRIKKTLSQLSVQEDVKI

[5] = Liver microsomal metabolic stability assay; type: in vitro ADME, human; details: compound remaining after 60 min at 37 °C, 1 μM
[6] = target: Full Kinase Panel (422-member kinase set); experiment: Eurofins Full Kinase Panel KinaseProfiler, whole panel; type: biochemical; details: at 1 μM
[7] = Liver microsomal metabolic stability assay; type: in vitro ADME, CD-1 mouse (male); details: compound remaining after 60 min at 37 °C, 1 μM
[8] = system: H3.3K27M, ACVR1^R206H mutant HSJD-DIPG-007 cells; details: 25 mg/kg for 28 days; cited from earlier work

Chain of DDR1(h) (Q08345 19-913): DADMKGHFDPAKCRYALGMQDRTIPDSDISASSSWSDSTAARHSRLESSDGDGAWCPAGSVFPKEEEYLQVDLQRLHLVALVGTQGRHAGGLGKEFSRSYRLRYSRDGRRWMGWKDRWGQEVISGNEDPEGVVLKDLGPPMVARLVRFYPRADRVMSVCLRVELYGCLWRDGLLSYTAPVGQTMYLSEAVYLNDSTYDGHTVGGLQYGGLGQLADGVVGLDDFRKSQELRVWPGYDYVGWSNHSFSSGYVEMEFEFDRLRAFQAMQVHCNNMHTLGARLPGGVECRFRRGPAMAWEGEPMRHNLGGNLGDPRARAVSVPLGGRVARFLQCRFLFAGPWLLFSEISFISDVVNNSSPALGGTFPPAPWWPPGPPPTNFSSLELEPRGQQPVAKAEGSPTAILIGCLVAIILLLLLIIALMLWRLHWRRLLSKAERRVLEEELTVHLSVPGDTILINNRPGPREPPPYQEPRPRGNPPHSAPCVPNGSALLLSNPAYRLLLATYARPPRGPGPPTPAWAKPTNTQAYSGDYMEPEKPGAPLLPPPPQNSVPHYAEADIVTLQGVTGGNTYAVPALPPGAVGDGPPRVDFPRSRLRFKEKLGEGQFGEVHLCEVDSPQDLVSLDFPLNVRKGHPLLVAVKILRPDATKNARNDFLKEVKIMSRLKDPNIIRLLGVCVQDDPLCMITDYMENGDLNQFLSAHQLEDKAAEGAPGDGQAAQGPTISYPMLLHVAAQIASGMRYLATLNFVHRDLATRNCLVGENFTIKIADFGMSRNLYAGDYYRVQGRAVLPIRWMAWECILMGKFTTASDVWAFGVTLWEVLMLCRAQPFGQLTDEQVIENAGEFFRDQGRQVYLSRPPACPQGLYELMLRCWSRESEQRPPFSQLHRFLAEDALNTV
Chain of TNIK(h) (Q9UKE5 whole entry): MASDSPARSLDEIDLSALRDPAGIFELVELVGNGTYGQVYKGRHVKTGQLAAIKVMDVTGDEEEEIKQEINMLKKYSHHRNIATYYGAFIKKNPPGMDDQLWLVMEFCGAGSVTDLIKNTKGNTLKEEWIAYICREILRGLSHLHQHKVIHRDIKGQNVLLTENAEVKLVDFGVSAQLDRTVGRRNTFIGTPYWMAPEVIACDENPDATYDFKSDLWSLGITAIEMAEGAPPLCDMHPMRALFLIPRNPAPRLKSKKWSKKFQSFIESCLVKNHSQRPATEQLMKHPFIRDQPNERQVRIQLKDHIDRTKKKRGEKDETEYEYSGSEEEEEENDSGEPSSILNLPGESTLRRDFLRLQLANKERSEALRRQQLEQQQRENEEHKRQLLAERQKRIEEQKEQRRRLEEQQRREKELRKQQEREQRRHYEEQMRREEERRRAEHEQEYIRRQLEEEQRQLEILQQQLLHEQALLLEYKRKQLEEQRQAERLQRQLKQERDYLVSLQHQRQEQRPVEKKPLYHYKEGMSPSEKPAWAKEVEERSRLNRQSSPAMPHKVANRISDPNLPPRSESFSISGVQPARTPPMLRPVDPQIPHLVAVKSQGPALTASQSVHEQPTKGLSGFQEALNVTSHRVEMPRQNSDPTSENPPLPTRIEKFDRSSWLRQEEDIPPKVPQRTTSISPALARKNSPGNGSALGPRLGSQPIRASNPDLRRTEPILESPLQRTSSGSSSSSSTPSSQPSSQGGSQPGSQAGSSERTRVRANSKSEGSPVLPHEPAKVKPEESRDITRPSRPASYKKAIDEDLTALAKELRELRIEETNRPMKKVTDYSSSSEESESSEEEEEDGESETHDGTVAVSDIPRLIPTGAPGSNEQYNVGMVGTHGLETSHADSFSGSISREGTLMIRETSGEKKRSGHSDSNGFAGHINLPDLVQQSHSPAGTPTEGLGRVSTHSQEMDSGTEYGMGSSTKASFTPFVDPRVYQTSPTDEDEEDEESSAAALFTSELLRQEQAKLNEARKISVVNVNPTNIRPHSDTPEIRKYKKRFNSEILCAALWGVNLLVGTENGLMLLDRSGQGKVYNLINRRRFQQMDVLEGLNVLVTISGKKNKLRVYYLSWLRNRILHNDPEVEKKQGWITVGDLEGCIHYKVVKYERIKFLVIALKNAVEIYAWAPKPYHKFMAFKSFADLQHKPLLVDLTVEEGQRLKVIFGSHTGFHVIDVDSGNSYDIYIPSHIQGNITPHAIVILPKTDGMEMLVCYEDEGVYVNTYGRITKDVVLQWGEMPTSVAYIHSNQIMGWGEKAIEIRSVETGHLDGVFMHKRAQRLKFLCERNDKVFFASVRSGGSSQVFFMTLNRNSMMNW

SMILES: COc1cc(-c2cncc(-c3ccc(N4CCNCC4)cc3)c2C)cc(OC)c1OC [Compound M4K2009]
- Microsomal Stability Assay MLM (%) [1]: 65 ^a % and 65%
- Microsomal Stability Assay HLM (%) [2]: 71 ^a % and 71%
- inhibition of DDR1 (DDR1(h)): almost complete inhibition
- Caco-2 Permeability Assay Papp_AB (Caco-2 cells; A to B): 5.4 ^a 10^–6 cm/s
- Caco-2 Permeability Assay Papp_BA (Caco-2 cells; B to A): 1.5 ^a 10^–6 cm/s
- inhibition of TNIK (TNIK(h)): almost complete inhibition

SMILES: COc1cc(-c2cncc3c2CCOc2cc(N4CCN(C)CC4)ccc2-3)cc(OC)c1OC [Compound M4K2281, 9-(4-Methylpiperazin-1-yl)-4-(3,4,5-trimethoxyphenyl)-5,6-dihydrobenzo[2,3]oxepino[4,5-c]pyridine]
- concentration at 24 h [3]: 0 nM

SMILES: COc1cc(-c2cncc3c2CN(C)Cc2cc(N4CCNCC4)ccc2-3)cc(OC)c1OC [Compound M4K2304, 6-Methyl-9-(piperazin-1-yl)-4-(3,4,5-trimethoxyphenyl)-6,7-dihydro-5H-benzo[c]pyrido[3,4-e]azepine]
- recovery at 2 h, 5 μM [4]: < 15%
- IC50 (ALK4/ACVR1β): 1180 nM
- Microsomal Stability Assay HLM (%) [5]: > 70%
- kinases inhibited by more than 50% [6]: 3%
- Microsomal Stability Assay MLM (%) [7]: > 70%

SMILES: COc1cc(-c2cncc3c2CN(C)Cc2cc(N4CCN(C)CC4)ccc2-3)cc(OC)c1OC [Compound M4K2306, 6-Methyl-9-(4-methylpiperazin-1-yl)-4-(3,4,5-trimethoxyphenyl)-6,7-dihydro-5H-benzo[c]pyrido[3,4-e]azepine]
- recovery at 2 h, 5 μM [4]: < 15%

SMILES: COc1cc(-c2cc(-c3ccc(N4CCNCC4)cc3)cnc2C)cc(OC)c1OC [LDN-214117]
- survival of mice bearing orthotopic xenografts [8]: extended survival
